Assay results reported in PubChem BioAssay (NCI).
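Cells were grown in 96-well plates and exposed to each compound for 48 hours at five concentrations; endpoints were interpolated linearly between bracketing concentrations, or set to the highest concentration if not reached. At the TGI there is no net growth.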

Legend:
Assay in all cases: NCI-60 cell line screen, 48 h
[1] = test system: 786-0 renal
[2] = test system: A498 renal
[3] = test system: A549 NSCLC
[4] = test system: ACHN renal
[5] = test system: BT-549 breast
[6] = test system: CAKI-1 renal
[7] = test system: CCRF-CEM leukemia
[8] = test system: COLO 205 colon
[9] = test system: DU-145 prostate
[10] = test system: EKVX NSCLC
[11] = test system: HCC-2998 colon
[12] = test system: HCT-116 colon
[13] = test system: HCT-15 colon
[14] = test system: HOP-62 NSCLC
[15] = test system: HOP-92 NSCLC
[16] = test system: HS 578T breast
[17] = test system: HT29 colon
[18] = test system: IGROV1 ovarian
[19] = test system: K-562 leukemia
[20] = test system: KM12 colon
[21] = test system: LOX IMVI melanoma
[22] = test system: M14 melanoma
[23] = test system: MALME-3M melanoma
[24] = test system: MCF7 breast
[25] = test system: MDA-MB-231 breast
[26] = test system: MDA-MB-435
[27] = test system: MDA-N
[28] = test system: MOLT-4 leukemia
[29] = test system: NCI-H226 lung
[30] = test system: NCI-H23 lung
[31] = test system: NCI-H460 lung
[32] = test system: NCI-H522 lung
[33] = test system: NCI/ADR-RES ovarian
[34] = test system: OVCAR-3 ovarian
[35] = test system: OVCAR-4 ovarian
[36] = test system: OVCAR-5 ovarian
[37] = test system: OVCAR-8 ovarian
[38] = test system: PC-3 prostate
[39] = test system: RPMI-8226 leukemia
[40] = test system: RXF 393 renal
[41] = test system: SF-268 CNS
[42] = test system: SF-295 CNS
[43] = test system: SK-MEL-2 melanoma
[44] = test system: SK-MEL-28 melanoma
[45] = test system: SK-MEL-5 melanoma
[46] = test system: SK-OV-3 ovarian
[47] = test system: SN12C renal
[48] = test system: SNB-19 CNS
[49] = test system: SNB-75 CNS
[50] = test system: SR leukemia
[51] = test system: SW-620 colon
[52] = test system: T-47D breast
[53] = test system: TK-10 renal
[54] = test system: U251 CNS
[55] = test system: UACC-257 melanoma
[56] = test system: UACC-62 melanoma
[57] = test system: UO-31 renal

With O=C1C(c2c(O)[nH]c3ccc([N+](=O)[O-])cc23)=Nc2ccccc21 the TGI [1] was over 100 µM, the TGI [2] was over 100 µM and the TGI [3] was over 100 µM. It also gave a TGI [4] of over 100 µM, a TGI [5] of over 100 µM and a TGI [6] of over 100 µM. The TGI [7] was over 100 µM, the TGI [8] was over 100 µM and the TGI [9] was over 100 µM. It also gave a TGI [10] of over 100 µM, a TGI [11] of over 100 µM and a TGI [12] of over 100 µM. The TGI [13] was over 100 µM, the TGI [14] was over 100 µM and the TGI [15] was over 100 µM. The TGI [16] was over 100 µM, the TGI [17] was over 100 µM and the TGI [18] was over 100 µM. For the same compound, the TGI [19] was over 100 µM, the TGI [20] was over 100 µM and the TGI [21] was over 100 µM. For the same compound, the TGI [22] was over 100 µM, the TGI [23] was over 100 µM and the TGI [24] was over 100 µM. The TGI [25] was 91.2 µM, the TGI [26] was over 100 µM and the TGI [27] was over 100 µM. It also gave a TGI [28] of over 100 µM, a TGI [29] of over 100 µM and a TGI [30] of over 100 µM. For the same compound, the TGI [31] was over 100 µM, the TGI [32] was over 100 µM and the TGI [33] was over 100 µM. It also gave a TGI [34] of over 100 µM, a TGI [35] of over 100 µM and a TGI [36] of over 100 µM. For the same compound, the TGI [37] was over 100 µM, the TGI [38] was over 100 µM and the TGI [39] was over 100 µM. It also gave a TGI [40] of 42.2 µM, a TGI [41] of over 100 µM and a TGI [42] of over 100 µM. For the same compound, the TGI [43] was over 100 µM, the TGI [44] was over 100 µM and the TGI [45] was over 100 µM. For the same compound, the TGI [46] was over 100 µM, the TGI [47] was over 100 µM and the TGI [48] was over 100 µM. For the same compound, the TGI [49] was 34.2 µM, the TGI [50] was over 100 µM and the TGI [51] was over 100 µM. The TGI [52] was over 100 µM, the TGI [53] was 70.9 µM and the TGI [54] was 49.8 µM. The TGI [55] was over 100 µM, the TGI [56] was over 100 µM and the TGI [57] was over 100 µM.
ClC(Cl)(Cl)C(N1CCN(c2ccccc2)CC1)N1CCN(c2ccccc2)CC1 showed a TGI [1] of over 100 µM, a TGI [2] of over 100 µM and a TGI [3] of over 100 µM. The TGI [4] was over 100 µM, the TGI [5] was over 100 µM and the TGI [6] was over 100 µM. The TGI [8] was over 100 µM, the TGI [9] was over 100 µM and the TGI [10] was over 100 µM. The TGI [12] was over 100 µM, the TGI [13] was over 100 µM and the TGI [14] was over 100 µM. It also gave a TGI [15] of over 100 µM, a TGI [16] of over 100 µM and a TGI [17] of over 100 µM. It also gave a TGI [18] of over 100 µM, a TGI [19] of over 100 µM and a TGI [20] of over 100 µM. For the same compound, the TGI [21] was over 100 µM, the TGI [22] was over 100 µM and the TGI [23] was over 100 µM. It also gave a TGI [24] of over 100 µM, a TGI [25] of over 100 µM and a TGI [26] of over 100 µM. It also gave a TGI [27] of over 100 µM, a TGI [28] of over 100 µM and a TGI [29] of over 100 µM. For the same compound, the TGI [31] was over 100 µM, the TGI [32] was over 100 µM and the TGI [33] was over 100 µM. For the same compound, the TGI [35] was over 100 µM, the TGI [36] was over 100 µM and the TGI [37] was over 100 µM. For the same compound, the TGI [38] was over 100 µM, the TGI [39] was over 100 µM and the TGI [40] was over 100 µM. It also gave a TGI [41] of over 100 µM, a TGI [43] of over 100 µM and a TGI [44] of over 100 µM. It also gave a TGI [45] of over 100 µM, a TGI [47] of over 100 µM and a TGI [48] of over 100 µM. It also gave a TGI [49] of over 100 µM, a TGI [50] of over 100 µM and a TGI [52] of over 100 µM. It also gave a TGI [53] of over 100 µM, a TGI [54] of over 100 µM and a TGI [55] of over 100 µM. For the same compound, the TGI [56] was over 100 µM and the TGI [57] was over 100 µM.
